Assay results from patent US12121526B2, “Targeting NCCA-ATP channel for organ protection following ischemic episode” (University of Maryland, Baltimore, priority 2007, dated 2024).
Entries after “also recorded” stand apart in the source; their conditions may differ. Structures can show the parent of a compound that is named as a salt. Where two headings read alike, the source gives them in different places. Each block holds one molecule with its values, some of them ahead of it.

Assays:
[1] = system: temporary middle cerebral artery occlusion; conditions: cited from earlier work
[2] = system: permanent middle cerebral artery occlusion; conditions: cited from earlier work
NCCa-ATP channel [3] = target: T1, NCCa-ATP channel (Rattus norvegicus, UniProt Q09429); conditions: cited from earlier work
T1 construct: endogenous in cells; host or cells: freshly isolated native reactive astrocytes (NRA/R1 astrocytes) from the hypoxic inner zone of the gliotic capsule in brain

NCCa-ATP channel [4] = target: T1, NCCa-ATP channel; assay: Patch clamp of NCCa-ATP channel in freshly isolated native reactive astrocytes; type: cell-based; conditions: for EC50: read-out: [ATP]1 EC50 (um)
Excerpt: The NCCa-ATP channel is a 35 pS cation channel that conducts all inorganic monovalent cations (Na^+, K^+, Cs^+, Li^+, Rb^+), but is impermeable to Ca^2+ and Mg^2+ (Chen and Simard, 2001). […] Studies using a variety of organic monovalent cations indicate that the channel has an equivalent pore radius of 0.41 nm.
The NCCa-ATP channel is believed to be composed of pore-forming and regulatory subunits. The regulatory subunit is sulfonylurea receptor 1 (SUR1), the same as that for KATP channels in pancreatic β cells (Chen et al., 2003), and so NCCa-ATP and pancreatic KATP channels have pharmacological profiles that resemble each other closely. […] Knockdown of SUR1 using antisense-oligodeoxynucleotide reduces SUR1 expression (Simard et al., 2006) and prevents expression of functional NCCa-ATP channels.

[5] = target: T2, SUR1-regulated NCCa-ATP channel (Homo sapiens, UniProt Q09428); assay: Patch clamp of cultured human aortic endothelial cells after hypoxia; type: cell-based
T2 construct: cultured endothelial cells from human aorta (ScienCell, SanDiego CA) were also studied; host or cells: human aortic endothelial cells (HAEC) cultured under hypoxia (1% O2)
Excerpt: In addition to studying freshly isolated capillary endothelial cells from rat spinal cord, cultured endothelial cells from human aorta (ScienCell, SanDiego CA) were also studied. The purpose with these studies was to investigate whether hypoxia/ischemia can lead to up-regulation of the SUR1-regulated NCCa-ATP channels in endothelial cells, a finding that was previously reported for astrocytes and neurons (Chen et al., 2003; Simard et al., 2006), but not endothelial cells. Endothelial cells were cultured under normoxic (room air) and hypoxic (1% 02) conditions. Cells cultured under both conditions were immunolabeled for SUR1, the regulatory subunit of both KATP and NCCa-ATP channels.
The diazoxide-induced current (difference current in FIG. 15A) reversed at E(K) consistent with an SUR1-regulated KATP channel current.
Inside-out patches from cells maintained under hypoxic conditions were also studied. […]
Patch clamp of endothelial cells was performed using a nystatin-perforated patch technique, to maintain the metabolic integrity of the cells. The identity of the activated channel can be assessed by measurement of the “reversal potential”, the potential at which an ion channel current reverses from inward to outward. […]

[6] = target: receptor-mediated Ca2+ entry; conditions: cited from earlier work
global cerebral ischemia = conditions: in vivo; cited from earlier work
[7] = system: freshly isolated reactive astrocytes; conditions: cited from earlier work; for Cell blebbing: glibenclamide with 1 mM Na azide, diazoxide alone without ATP depletion
[8] = system: isolated retina of chick embryo; conditions: glucose/oxygen deprivation or excitotoxic conditions; cited from earlier work
[9] = system: stroke induced by thromboemboli; conditions: constant infusion 75-200 ng/h; cited from earlier work
[10] = system: large MCA stroke associated with malignant cerebral edema; conditions: cited from earlier work
[11] = system: cervical spinal cord contusion injury; assay: Rat cervical hemi-cord contusion spinal cord injury model; type: in vivo
Excerpt: The cervical contusion SCI model that is used is that of Soblosky et al. (2001). Adult female Long-Evans rats are anesthetized (Ketamine and Xylazine) and a hemilaminectomy is made at C4-5 to expose the dura. A hemi-cervical spinal cord contusion is created using a blunt force impactor (see details below “The model of contusion SCI”).
To generate the injury for the data shown here, the impactor was activated using a 10-gm weight dropped from 2.5 cm.
Animals were sacrificed at ¾ hr and 24 hr after contusion SCI (n=5 rats per group), they were perfused with heparinized saline to remove intravascular blood, and 5-mm segments of cord encompassing the lesion were homogenized and processed using Drabkin's reagent to convert hemoglobin to cyanomethemoglobin for spectrophotometric measurements (Choudhri et al., 1997).
Animals underwent the same SCI as above, and immediately after, were implanted with mini-osmotic pumps (Alzet 2002, 14 day pump, […]; Durect Corporation, Cupertino, CA) that delivered either saline or drug s.q.
Spinal cords were examined 24 hr after SCI. […] In other rats, […] sections of cord were harvested that encompassed the contusion site and we quantified the amount of blood present in tissues after removal of intravascular blood by perfusion at time of euthanasia (n=5-6 rats per group).
As previously described (Gensel et al., 2006), rats were placed in a glass cylinder to which they had not been previously exposed. A peanut butter treat was placed 8 inches above the floor, and the number of seconds spent with both front paws elevated above shoulder-height was counted during a 3-min period of observation.

NCCa-ATP channels = assay: Nystatin-perforated patch clamp of hypoxic endothelial cells, current activated by Na+ azide; type: cell-based, human; conditions: 1 μM; hypoxic conditions
Experimental: Patch clamp of endothelial cells was performed using a nystatin-perforated patch technique, to maintain the metabolic integrity of the cells. The identity of the activated channel can be assessed by measurement of the “reversal potential”, the potential at which an ion channel current reverses from inward to outward. With physiologically relevant concentrations of ions intracellularly and extracellularly (high potassium inside, high sodium outside), the reversal potential can unambiguously distinguish between a K^+ channel current such as KATP, which reverses negative to −50 mV and a non-selective cation channel current such as NCCa-ATP, which reverses near 0 mV.
Channel activation was also studied upon induction by Na^+ azide, a […] that depletes cellular ATP (Chen and Simard, 2001).

recombinant MMP = assay: Zymography of gelatinase activity of recombinant MMP; type: biochemical; conditions: glibenclamide 10 μM; MMP-inhibitor II 300 nM
Excerpt: In stroke, hemorrhagic conversion has been attributed to activation of matrix metalloproteinases (MMP) (Gidday et al., 2005; Justicia et al., 2003; Lorenzl et al., 2003; Romanic et al., 1998). […] This was studied directly using zymography of recombinant MMPs.

[12] = system: freshly isolated reactive astrocytes; conditions: 1 mM Na azide; 1 μM glibenclamide; cited from earlier work
transient focal ischemia = conditions: pre- or post-ischemic administration; cited from earlier work
permanent MCAO = conditions: given 30 min after initiation of permanent MCAO; cited from earlier work
[13] = after 6 h of vascular occlusion
[14] = Membrane Preparation derived from freshly isolated native reactive astrocytes

T2 sequence (Q09428 whole entry): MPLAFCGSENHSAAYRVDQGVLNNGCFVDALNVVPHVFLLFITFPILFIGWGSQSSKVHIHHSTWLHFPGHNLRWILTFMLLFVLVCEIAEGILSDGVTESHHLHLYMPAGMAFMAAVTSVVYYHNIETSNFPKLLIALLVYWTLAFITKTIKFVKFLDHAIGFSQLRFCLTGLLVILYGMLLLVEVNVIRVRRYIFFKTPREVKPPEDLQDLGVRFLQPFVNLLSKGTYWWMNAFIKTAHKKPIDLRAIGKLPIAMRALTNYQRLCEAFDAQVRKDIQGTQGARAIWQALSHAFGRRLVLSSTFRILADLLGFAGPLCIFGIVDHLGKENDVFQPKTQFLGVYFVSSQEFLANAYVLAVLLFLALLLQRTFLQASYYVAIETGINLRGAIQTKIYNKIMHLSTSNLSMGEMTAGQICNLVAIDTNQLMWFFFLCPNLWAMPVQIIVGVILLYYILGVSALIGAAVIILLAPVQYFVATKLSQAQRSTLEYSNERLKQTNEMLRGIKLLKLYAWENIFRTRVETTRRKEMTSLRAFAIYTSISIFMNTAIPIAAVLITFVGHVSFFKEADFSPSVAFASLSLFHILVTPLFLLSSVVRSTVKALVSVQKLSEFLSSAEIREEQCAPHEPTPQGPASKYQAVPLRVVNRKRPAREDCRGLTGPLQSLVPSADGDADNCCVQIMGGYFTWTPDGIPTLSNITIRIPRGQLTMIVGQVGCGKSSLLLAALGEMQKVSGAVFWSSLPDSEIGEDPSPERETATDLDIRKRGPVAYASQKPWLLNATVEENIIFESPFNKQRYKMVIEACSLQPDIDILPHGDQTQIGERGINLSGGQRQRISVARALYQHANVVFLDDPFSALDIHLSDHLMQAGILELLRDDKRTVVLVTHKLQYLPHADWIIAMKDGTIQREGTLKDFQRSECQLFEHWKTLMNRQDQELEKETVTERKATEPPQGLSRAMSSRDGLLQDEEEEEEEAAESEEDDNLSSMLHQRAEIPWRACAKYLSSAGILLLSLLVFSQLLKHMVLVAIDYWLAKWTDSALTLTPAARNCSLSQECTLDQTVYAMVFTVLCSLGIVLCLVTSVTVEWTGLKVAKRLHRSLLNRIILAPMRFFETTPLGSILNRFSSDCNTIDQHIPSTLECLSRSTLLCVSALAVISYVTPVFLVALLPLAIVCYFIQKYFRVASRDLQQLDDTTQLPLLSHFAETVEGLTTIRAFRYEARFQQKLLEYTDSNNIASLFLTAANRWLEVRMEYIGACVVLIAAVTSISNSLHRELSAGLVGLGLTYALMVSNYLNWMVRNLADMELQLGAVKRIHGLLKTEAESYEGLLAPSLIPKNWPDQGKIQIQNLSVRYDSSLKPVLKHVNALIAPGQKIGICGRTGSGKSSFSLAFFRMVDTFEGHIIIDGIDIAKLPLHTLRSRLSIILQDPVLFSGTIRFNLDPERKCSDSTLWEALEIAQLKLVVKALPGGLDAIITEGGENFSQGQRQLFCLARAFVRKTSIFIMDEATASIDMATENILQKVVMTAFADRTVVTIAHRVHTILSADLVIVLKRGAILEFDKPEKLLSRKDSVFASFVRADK
T2 sequence (Q8TD43 whole entry partner): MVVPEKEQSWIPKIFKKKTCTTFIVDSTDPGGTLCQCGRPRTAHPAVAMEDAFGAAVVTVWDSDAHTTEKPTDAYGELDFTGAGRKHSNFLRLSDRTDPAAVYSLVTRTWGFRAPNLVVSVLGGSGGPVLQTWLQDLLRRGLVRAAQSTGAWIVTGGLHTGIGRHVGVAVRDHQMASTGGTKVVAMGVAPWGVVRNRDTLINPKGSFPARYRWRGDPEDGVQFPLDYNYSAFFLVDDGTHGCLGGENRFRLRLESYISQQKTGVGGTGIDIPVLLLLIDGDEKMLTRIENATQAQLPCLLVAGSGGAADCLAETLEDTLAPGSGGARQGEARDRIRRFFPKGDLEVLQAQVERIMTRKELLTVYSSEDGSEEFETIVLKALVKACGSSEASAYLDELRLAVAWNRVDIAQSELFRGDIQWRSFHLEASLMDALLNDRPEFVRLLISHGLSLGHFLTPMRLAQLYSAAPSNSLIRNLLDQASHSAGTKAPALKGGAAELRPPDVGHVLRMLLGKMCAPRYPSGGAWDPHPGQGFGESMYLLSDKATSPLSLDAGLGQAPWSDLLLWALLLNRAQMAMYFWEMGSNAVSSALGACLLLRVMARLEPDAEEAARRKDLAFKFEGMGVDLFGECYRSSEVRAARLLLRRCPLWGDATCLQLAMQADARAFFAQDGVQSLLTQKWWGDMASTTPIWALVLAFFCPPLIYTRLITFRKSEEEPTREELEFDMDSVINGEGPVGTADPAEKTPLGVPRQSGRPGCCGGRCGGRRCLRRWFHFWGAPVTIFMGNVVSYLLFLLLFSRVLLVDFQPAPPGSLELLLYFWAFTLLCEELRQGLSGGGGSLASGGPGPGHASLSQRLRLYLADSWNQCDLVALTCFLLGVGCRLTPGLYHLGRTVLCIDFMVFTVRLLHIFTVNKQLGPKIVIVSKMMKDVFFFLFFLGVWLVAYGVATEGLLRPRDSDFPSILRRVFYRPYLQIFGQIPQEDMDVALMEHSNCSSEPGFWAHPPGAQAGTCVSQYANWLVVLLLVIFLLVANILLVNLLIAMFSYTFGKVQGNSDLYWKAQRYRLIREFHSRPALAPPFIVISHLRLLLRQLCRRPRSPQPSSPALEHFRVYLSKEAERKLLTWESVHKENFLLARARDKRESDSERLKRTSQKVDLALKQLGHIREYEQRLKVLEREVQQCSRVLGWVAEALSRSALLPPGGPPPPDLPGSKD

Structure (SMILES): COc1cc2c(cc1OC)C(C(C(=O)N(CCc1ccc(OC)c(OC)c1OC)CCc1ccc(OC)c(OC)c1OC)c1ccccc1)=NCC2 (racemic) [pinokalant, (R,S)-(3,4-dihydro-6,7-dimethoxy-isoquinoline-1-yl)-2-phenyl-N,N-di[2-(2,3,4-trimethoxyphenyl)ethyl]-acetamide]
DWI-derived infarct volume ([1]; 4 h after MCAO): significantly smaller
Neurological scores ([1]; at 24 h): significantly better
TTC-derived infarct volume ([1]; postmortem): significantly attenuated
Blood flow [2, 13]: significantly higher
Reduction of the volume of ATP-depleted and morphologically injured tissue (infarct core) [2, 13]: 60-70%
Decrease of ADC lesion volume ([2]; initial 6 h of vascular occlusion, untreated increased by approximately 50%): approximately 20%

Effect on channel (NCCa-ATP channel [4]; [14]): No channel effect
Effect on channel (NCCa-ATP channel [4]; Reactive Astrocytes): No channel effect
Structure (SMILES): Nc1ncnc2c1ncn2[C@@H]1O[C@H](COP(=O)(O)OP(=O)(O)O)[C@@H](O)[C@H]1O [ADP]
Effect on channel opening (NCCa-ATP channel [3]): unaffected

Effect on channel (NCCa-ATP channel [4]; [14]): No channel effect
Effect on channel (NCCa-ATP channel [4]; Reactive Astrocytes): No channel effect
Structure (SMILES): Nc1ncnc2c1ncn2[C@@H]1O[C@H](COP(=O)(O)O)[C@@H](O)[C@H]1O [AMP]
Effect on channel opening (NCCa-ATP channel [3]): unaffected

EC50 (NCCa-ATP channel [4]; [14]): 790 nM
EC50 (NCCa-ATP channel [4]; Reactive Astrocytes): 790 nM
Single channel openings in inside-out patches ([5]; 20 μM in the bath, hypoxic cells, Cs+ as cation): inhibited
Structure (SMILES): Nc1ncnc2c1ncn2[C@@H]1O[C@H](COP(=O)(O)OP(=O)(O)OP(=O)(O)O)[C@@H](O)[C@H]1O [ATP]
EC50 (NCCa-ATP channel [3]; read-out: Block of channel opening, EC50): 790 nM

Structure (SMILES): COc1ccc(CCCOC(Cn2ccnc2)c2ccc(OC)cc2)cc1 (stereo not drawn) [SKF 96365, 1-(beta-[3-(4-methoxy-phenyl)propoxy]-4-methoxyphenethyl)-1H-imidazole hydrochloride]
IC50 [6]: ~10000 nM

Structure (SMILES): COc1cc(CNC(=O)CCCC/C=C/C(C)C)ccc1O [capsaicin]
Electroencephalographic changes, hyperlocomotion and memory impairment induced by global ischemia (global cerebral ischemia): antagonize

Structure (SMILES): Oc1cc2c(cc1O)CN(C(=S)NCCc1ccc(Cl)cc1)CCC2 [capsazepine]
Effect on rimonabant-induced and capsaicin-induced neuroprotective effects (global cerebral ischemia): reversed

Structure (SMILES): CC1=NS(=O)(=O)c2cc(Cl)ccc2N1 [diazoxide]
Cell blebbing [7]: reproduced
Block or opening of the NCCa-ATP channel (NCCa-ATP channel [3]): opened
Channel opening in the presence of ATP (NCCa-ATP channel [3]; in the presence of ATP): increased
Membrane current, reversing near 0 mV ([5]; cells maintained under hypoxic conditions): significantly increased; also recorded: activated an ohmic current

Structure (SMILES): O=C(O)c1ccccc1Nc1cccc(C(F)(F)F)c1 [flufenamic acid]
Protection of retina against ischemic or excitotoxic insult [8]: protected

Structure (SMILES): COc1ccc(Cl)cc1C(=O)NCCc1ccc(S(=O)(=O)NC(=O)NC2CCCCC2)cc1 [glibenclamide]
Reduction of lesion volume / stroke size [9]: reduced by half
Reduction of mortality ([10]; constant infusion 75-200 ng/h): by half
7-day mortality ([10]; control rats 68%, n=29 in each group): 28%
Reduction of cerebral edema / ionic edema (excess water) ([10]; low-dose, post-ischemic): reduced by half
Hemorrhage at the contusion site ([11]; 24 hr after SCI, 75 ng/hr s.q.): significantly reduced; also recorded: less prominent
Blood in 6-mm cord segment encompassing the contusion ([11]; 24 hr after SCI, 75 ng/hr s.q., vehicle 1.9±0.02): 0.9 ± 0.2 µL
Neurological function (rearing behavior) ([11]; 24 hr after injury, 3-min observation): significant neurological functional improvement; also recorded: significantly better; also recorded: improves neurological function
Membrane depolarization ([7]; cells exposed to Na+ azide to deplete ATP): blocks
Cell blebbing [7]: significantly reduces; also recorded: completely prevented; also recorded: blocked
Ohmic current activated by Na+ azide-induced ATP depletion (NCCa-ATP channels): blocked
Gelatinase activity (recombinant MMP): the same
Necrotic cell death induced by Na azide [12]: significantly reduced; also recorded: significant reduced

Structure (SMILES): Cc1ccc(Cl)c(Nc2ccccc2C(=O)O)c1Cl [meclofenamic acid]
Protection of retina against ischemic or excitotoxic insult [8]: protected

Structure (SMILES): Cc1cccc(Nc2ccccc2C(=O)O)c1C [mefenamic acid]
Neuroprotection (necrosis in cortex and subcortical structures) (transient focal ischemia): no neuroprotection
Protection of retina against ischemic or excitotoxic insult [8]: protected

Structure (SMILES): CCOc1cc(CC(=O)N[C@@H](CC(C)C)c2ccccc2N2CCCCC2)ccc1C(=O)O [repaglinide]
Block or opening of the NCCa-ATP channel (NCCa-ATP channel [3]): blocked

Structure (SMILES): Cc1c(C(=O)NN2CCCCC2)nn(-c2ccc(Cl)cc2Cl)c1-c1ccc(Cl)cc1 [rimonabant]
Electroencephalographic changes, hyperlocomotion and memory impairment induced by global ischemia (global cerebral ischemia): antagonize
Reduction of infarct volume (permanent MCAO): ~40%
